Columns and labels:
Rattus norvegicus = organism: Rattus norvegicus; test: Selectivity for rat recombinant delta opioid receptor over rat recombinant mu opioid receptor
[1] = target: Kappa-type opioid receptor (Homo sapiens, UniProt P41145); test: Displacement of [3H]U-69593 from human recombinant kappa opioid receptor expressed in CHO cells; assay type: cell-based
Mu-type opioid receptor = Mu-type opioid receptor (Rattus norvegicus, UniProt P33535); test: Displacement of [3H]DAMGO from rat recombinant mu opioid receptor expressed in C6 cells; assay type: cell-based
[2] = target: Delta-type opioid receptor (Rattus norvegicus, UniProt P33533); test: Displacement of [3H]p-Cl-DPDPE from rat recombinant delta opioid receptor expressed in C6 cells; assay type: cell-based
Delta-type opioid receptor, sequence (P33533 whole entry): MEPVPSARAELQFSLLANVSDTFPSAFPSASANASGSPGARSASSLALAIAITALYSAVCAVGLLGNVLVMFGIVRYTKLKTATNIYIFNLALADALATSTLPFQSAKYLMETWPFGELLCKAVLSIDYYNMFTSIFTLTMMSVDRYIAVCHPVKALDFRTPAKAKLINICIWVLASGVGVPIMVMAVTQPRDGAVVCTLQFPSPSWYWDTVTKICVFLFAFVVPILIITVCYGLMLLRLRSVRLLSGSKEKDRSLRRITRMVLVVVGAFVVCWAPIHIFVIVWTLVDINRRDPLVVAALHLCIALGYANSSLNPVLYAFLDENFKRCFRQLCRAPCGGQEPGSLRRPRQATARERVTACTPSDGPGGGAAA

Kappa-type opioid receptor, sequence (P41145 whole entry): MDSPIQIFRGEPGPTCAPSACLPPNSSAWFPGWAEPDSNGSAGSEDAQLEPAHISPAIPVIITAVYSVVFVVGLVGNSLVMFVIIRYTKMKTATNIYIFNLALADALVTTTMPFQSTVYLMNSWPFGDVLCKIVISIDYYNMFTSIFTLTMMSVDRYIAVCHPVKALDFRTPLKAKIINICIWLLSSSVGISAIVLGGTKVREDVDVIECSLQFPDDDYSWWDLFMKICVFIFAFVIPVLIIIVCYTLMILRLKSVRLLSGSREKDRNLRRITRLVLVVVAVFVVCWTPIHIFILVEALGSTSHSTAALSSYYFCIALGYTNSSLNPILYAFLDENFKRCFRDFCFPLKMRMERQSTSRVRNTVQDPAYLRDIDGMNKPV
Mu-type opioid receptor, sequence (P33535 whole entry): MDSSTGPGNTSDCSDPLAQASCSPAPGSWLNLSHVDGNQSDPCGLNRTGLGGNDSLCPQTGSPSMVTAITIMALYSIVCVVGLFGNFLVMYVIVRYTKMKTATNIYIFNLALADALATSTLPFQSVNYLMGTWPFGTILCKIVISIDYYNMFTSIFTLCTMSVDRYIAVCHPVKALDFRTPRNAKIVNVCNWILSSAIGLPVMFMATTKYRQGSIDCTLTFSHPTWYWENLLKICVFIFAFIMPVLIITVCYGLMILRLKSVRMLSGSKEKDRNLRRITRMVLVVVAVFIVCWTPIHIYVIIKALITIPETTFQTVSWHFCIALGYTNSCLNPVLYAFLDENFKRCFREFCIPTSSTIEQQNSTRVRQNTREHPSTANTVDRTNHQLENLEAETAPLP

Structure (SMILES)	Ratio Ki (Rattus norvegicus)	Ki [1] [nM]	Ki (Mu-type opioid receptor) [nM]	Ki [2] [nM]
COc1ccc2c(c1OC)[C@]13CCN(C)[C@H](C2)[C@]1(O)Cc1c([nH]c2ccccc12)C3	185	> 7000	7590	41
COc1ccc2c(c1OC)[C@]13CCN(CC4CC4)[C@H](C2)[C@]1(O)Cc1c([nH]c2ccccc12)C3	90	1440	1720	19
COc1c(O)ccc2c1[C@]13CCN(CC4CC4)[C@H](C2)[C@]1(O)Cc1c([nH]c2ccccc12)C3	145	79	58	0.4
CN1CC[C@]23c4c5ccc(O)c4O[C@H]2c2[nH]c4ccccc4c2C[C@@]3(O)[C@H]1C5 [OXYMORPHINDOLE CHLORIDE]	115	515	105	0.9
COc1c(O)ccc2c1[C@]13CCN(C)[C@H](C2)[C@]1(O)Cc1c([nH]c2ccccc12)C3	105	582	474	4.5
